Data reported in paper PMC5120204, “Identification of an orally active small-molecule PTHR1 agonist for the treatment of hypoparathyroidism” (Nature Communications, 2016).

What was measured:
TPTX rats = test: Repeated administration study in TPTX rats, study 1; assay type: in vivo, rat
Protocol: TPTX was carried out in 6-week-old female Crl:CD (SD) rats (Charles River Laboratories). Rats with serum Ca levels of <8.0 mg dl^−1 at 5 days after surgery were used in the following experiments. The rats were divided into four groups both in study 1 and 2, each with a similar mean value of serum Ca levels and body weight. Sample sizes were determined as described in the above single administration study. To evaluate the calcemic effects of PCO371 and hPTHs, we defined a target therapeutic range for serum Ca of 7.6–11.2 mg dl^−1, which corresponds to the low normal to normal range of serum Ca levels.
TPTX rats were treated twice daily (at around 09:00 and 19:00 hours) orally (vehicle or PCO371 at 1, 3 or 9 mg kg^−1) or subcutaneously [hPTH(1–34) or vehicle at 9 nmol kg^−1] for 4 weeks. Four rats were assigned to sham control, and treated with vehicle for PCO371. Vehicles for PCO371 and hPTH(1–34) were the same as in the OVX rat study. Under isoflurane anaesthesia, jugular vein blood was collected immediately before and at 6 and 10 h (for PCO371) or at 1 and 10 h (for hPTH) after administrations to measure the serum Ca levels on days 1 (the first dosing day), 7, 14, 22 and 29. Urine was collected for 24 h by using metabolic cages on days 29–30, and Ca excretion was calculated from urine volume and Ca level. Under isoflurane anaesthesia, jugular vein blood was collected 10 h after administrations to measure serum 1,25(OH)2D3 levels on Day 29 by using a 1,25(OH)2D3 RIA kit (Fujirebio). Four or five TPTX rats were assigned to each dose group. Serum and urine Ca levels were measured in the same way as in the single-dosing study. In another experiment, TPTX rats were treated subcutaneously once daily with hPTH(1–84) at 9 nmol kg^−1, for 4 weeks. Serum Ca was measured immediately before and at 2, 6 and 10 h after administration on day 1 (the first dosing day), 7, 14, 21 and 28 using the same method as described above. Urine was collected for 24 h by using metabolic cages on days 28 and 29, and Ca excretion was calculated from urine volume and Ca level.

OVX rats = test: Repeated administration study in OVX rats; assay type: in vivo, rat
Protocol: OVX was carried out in 32-week-old female Crl:CD (SD) rats (Charles River Laboratories). Twelve weeks after surgery, lumbar vertebral BMD (L3–L5) was measured in vivo by dual-energy X-ray absorptiometry (DXA) using a DCS-600EX-IIIR bone densitometer (Hitachi Aloka Medical), and the rats were divided into five groups, each with a similar mean value of BMD and body weight. Sample sizes were determined based on previous experiments with hPTHs and a published study with ibandronate and eldecalcitriol in our laboratories[42] (n=7–10). Then, OVX rats were treated once daily intravenously (vehicle or PCO371 at 3 or 10 mg kg^−1) or orally (vehicle or PCO371 at 30 mg kg^−1) or subcutaneously [vehicle or hPTH(1–34) at 0.9 nmol kg^−1] for 12 weeks. Ten to twelve OVX rats were assigned to each dose group. Nine rats were assigned to the sham-operated control group and were treated with vehicle for PCO371. Ten per cent DMSO (Wako Pure Chemical Industries)/10% Kolliphor EL (Sigma-Aldrich) in 10% hydroxypropyl-β-cyclodextrin (HPCD; Nihon Shokuhin Kako)/0.752% glycine (Wako Pure Chemical Industries) buffer was used as vehicle for PCO371, and phosphate-citrate buffer (pH 6.0) was used as vehicle for hPTH(1–34). To label bone-forming surfaces, tetracycline ([…], Nippon Zenyaku Kogyo) was subcutaneously injected on Day 78 and calcein (8 mg kg^−1, Dōjindo Laboratories) was subcutaneously injected on day 83. Under isoflurane anaesthesia, jugular vein blood was collected immediately before and at 1, 2, 6, 10 and 24 h after administration on day 82 to measure plasma concentration of PCO371 or on day 84 to measure serum Ca levels (o-CPC method, Wako Pure Chemical Industries). Urine was collected for 24 h from metabolic cages on days 84–85 to measure urinary collagen type 1 cross-linked C-telopeptide (CTX) by using the RatLaps ELISA System (Immunodiagnostic Systems). Under isoflurane anaesthesia, blood was collected on day 85 from the abdominal aorta to measure serum osteocalcin level by using the Rat Osteocalcin ELISA System (GE Healthcare). The lumbar spine and bilateral femurs were excised after 12 weeks of treatment. The first lumbar vertebra (L1), 3rd to 5th lumbar vertebrae (L3–L5), the right femur, and the right tibia were preserved in 70% ethanol to measure bone histomorphometry and BMD (DCS-600EX; Hitachi Aloka Medical). Measurement of bone histomorphometry was performed by the Ito Bone Histomorphometry Institute (Niigata, Japan). The second lumbar vertebra (L2) was wrapped in saline-soaked gauze and stored at −80 °C until measurement. Ultimate compressive strength (N) of the L2 vertebra was measured by using a mechanical testing machine (TK-252C; Muromachi Kikai).

[1] = daily oral 30 mg kg^−1, 12 weeks

Cc1cc(N2C(=O)NC(=O)C2(C)C)cc(C)c1CCS(=O)(=O)N1CCC2(CC1)N=C(c1ccc(OC(F)(F)F)cc1)NC2=O [PCO371, 1-{3,5-dimethyl-4-[2-({4-oxo-2-[4-(trifluoromethoxy)phenyl]-1,3,8-triazaspiro[4.5]dec-1-en-8-yl}sulfonyl)ethyl]phenyl}-5,5-dimethylimidazolidine-2,4-dione]
Serum 1,25(OH)2D3 levels (TPTX rats; 9 mg kg^−1 twice-daily oral, 4 weeks): increased significantly | urinary Ca excretion (TPTX rats; after 4-week treatment, up to 9 mg kg^−1 twice-daily oral): not increased | hypercalcemia (>11.2 mg dl^−1) (TPTX rats; at 0, 6 and 10 h after administrations on days 1, 7, 14, 22 and 29): no hypercalcemia | time serum Ca maintained within the target range after each administration (TPTX rats; twice-daily oral 3 mg kg^−1 or more, 4 weeks): at least 6 h | body weight or general condition vs vehicle-treated rats (TPTX rats; twice-daily oral, 4 weeks): no significant difference | dose that increased serum Ca to within the target therapeutic range (TPTX rats; twice-daily oral, 4 weeks, range 7.6–11.2 mg dl^−1): ≥ 3 mg/kg | BMD or bone strength in the lumbar spine (OVX rats; daily intravenous 3 mg kg^−1, 12 weeks): did not affect | BMD in the proximal femur (OVX rats; [1]): partially increased | BMD in total femur (OVX rats; [1]): not in total femur | BMD or bone strength in the lumbar spine (OVX rats; [1]): did not affect | serum Ca (OVX rats; day 84, all treated rats): within the normal range | serum osteocalcin and urinary CTX/creatinine (OVX rats; intravenous 10 mg kg^−1, 12 weeks): significant increase | BMD and bone strength in the lumbar vertebrae (OVX rats; once-daily intravenous 10 mg kg^−1, 12 weeks, vs vehicle): significant increase | serum osteocalcin and urinary CTX/creatinine (OVX rats; oral 30 mg kg^−1, 12 weeks): significant increase
